According to paper PMC4243253 (Biochemical Journal, 2014):
Like-named read-outs stand apart in the source and are kept apart here.

Key:
[1] = target: T1, BaKynB (Bacillus anthracis, UniProt Q81PP9); test: biochemical
T1 construct: gene kynB

[2] = target: T1, BaKynB; test: biochemical; remark: listed apart in the source

T1 sequence (Q81PP9 whole entry, looked up): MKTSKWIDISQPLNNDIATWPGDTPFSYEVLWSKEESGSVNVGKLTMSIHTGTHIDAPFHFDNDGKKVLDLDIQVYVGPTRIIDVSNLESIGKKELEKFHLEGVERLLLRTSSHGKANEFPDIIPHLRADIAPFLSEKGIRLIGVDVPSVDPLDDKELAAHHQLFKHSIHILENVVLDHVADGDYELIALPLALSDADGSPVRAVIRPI

Q: `CC(=O)c1ccccc1N` [2-aminoacetophenone] was tested. Which Kd [1] did it give?
A: Its Kd is about 50 µM.

Q: How did the Kd [2] turn out when `Nc1ccccc1C(=O)C[C@H](N)C(=O)O` [L-kynurenine, (S)-2-amino-4-(2-aminophenyl)-4-oxobutanoic acid] was run?
A: Its Kd is about 60 µM.
